Experimental data from US20130072505A1, “6,9-Disubstituted Purine Derivatives and Their Use for Treating Skin” (priority 2006, published 2013).

Key:
[1] = test system: human skin fibroblasts; assay: short-term studies on cultured human skin fibroblasts (attachment, survival, growth, apoptosis); format: cell-based
Procedure: Several short-term, preliminary studies of the effect of 6-furfurylamino-9-(2-tetrahydropyranyl)purine on cultured human skin fibroblasts cells have been carried out. The initial study involved the addition of 6-furfurylamino-9-(2-tetrahydropyranyl)purine (40 to 400 μM) to human skin fibroblasts cells in a culture. The percentage of attachment of the cells to the surface of the culture flask was not affected after 6 hours of treatment. In the remaining experiments reported in this example, the 6-furfurylamino-9-(2-tetrahydropyranyl)purine was added directly to the culture medium at the same time as the cells were seeded.
A wider range of concentrations (from 0.01 to 500 μM) was tested for determining the effects of 6-furfurylamino-9-(2-tetrahydropyranyl)purine on the survival of cultured human skin fibroblasts after 3 days of treatment.
The effect of 6-furfurylamino-9-(2-tetrahydropyranyl)purine (0 to 400 μM) treatment on short term growth of young human fibroblasts was also evaluated. Cell growth was similar in untreated samples and in samples treated with 40, 80, and 200 μM 6-furfurylamino-9-(2-tetrahydropyranyl)purine. […] Similar experiments were carried out to determine the extent of apoptosis and beta-galactosidase staining in 6-furfurylamino-9-(2-tetrahydropyranyl)purine-treated and untreated cells.
Based on these studies, 6-furfurylamino-9-(2-tetrahydropyranyl)purine appears to be well tolerated by young and senescent human skin fibroblasts and to have positive effects in terms of reversion of actin pattern and morphology of senescent cells to relatively younger characteristics.

[2] = test system: senescent human skin fibroblasts; assay: treatment of senescent human skin fibroblasts (cell number, actin staining, morphology); format: cell-based
Procedure: The effect of 6-furfurylamino-9-(2-tetrahydropyranyl)purine on senescent cells was also examined. An equal number of senescent cells were seeded in separate flasks and then treated with different concentrations of 6-furfurylamino-9-(2-tetrahydropyranyl)purine (0 to 400 μM). Cell numbers were determined after 7 and 14 days of treatment using a Coulter counter after trypsinisation and resuspension of the cells.
Late passage senescent cells with a life span of more than 95% were also treated with different concentrations of 6-furfurylamino-9-(2-tetrahydropyranyl)purine (0 to 200 μM) to assess age-related changes. The actin staining patterns were examined after three days. […] Less polymerized and diffused patterns of actin staining are generally associated with youthful characteristics of human fibroblasts. Thus, 6-furfurylamino-9-(2-tetrahydropyranyl)purine appears to revert some of the age-related changes in actin organization in senescent cells.
Senescent human skin fibroblasts were also treated with 6-furfurylamino-9-(2-tetrahydropyranyl)purine (0 to 400 μM) and evaluated for reversion of age-related changes. There were significant differences in the appearance of the cells after 7 and 30 days of treatment. […] Even at higher concentrations (200 and 400 μM), the 6-furfurylamino-9-(2-tetrahydropyranyl)purine-treated cells appeared to be smaller and have less intracellular debris as compared untreated cells.

[3] = test system: Rat C6 glioma (ATCC No. CCL107); assay: anti-inflammatory activity: isoproterenol-induced intracellular cAMP synthesis; format: cell-based; conditions: cAMP after 30 min with (−)-isoproterenol
Procedure: Anti-inflammatory activity of several of the 6,9-disubstituted purine derivatives of this invention was determined; kinetin was also evaluated as a control. Rat C6 glioma (ATCC No. CCL107) was cultivated in monolayer in serum-free chemically defined medium containing Ham's F10/minimal essential medium (1:1 v/v), 2 mM L-glutamine, 1% (v/v) minimal essential medium vitamins (100×), 1% (v/v) minimal essential medium nonessential amino acids (100×), 100 U/ml penicillin, […], and 30 nM sodium selenite. Incubation was performed at 37° C. in a humidified atmosphere. The assays were performed in the logaritmic growth phase at a density of 2.5×10^5 cells/cm^2. Intracellular cAMP synthesis was induced by addition of 5 mM (−)-isoproterenol; various amounts of test compounds were added at the same time as the (−)-isoproterenol. After 30 min incubation at 37° C., the medium was removed and the cellular amount of cAMP was determined using the cAMP-enzyme immunoassay kit from Amersham. The I50 value was determined from a dose-response curve in duplicate.

[4] = test system: Salmonella typhimurium histidien auxotrophs TA98 and TA100; assay: Ames Test; format: cell-based; conditions: 2.5 to 5000 μg/plate; presence and absence of rat liver S9
Procedure: Tests were carried out using DMSO as solvent and dose levels of 6-furfurylamino-9-(2-tetrahydropyranyl)purine at 2.5, 5.0, 15, 50, 500, 1500, and 5000 μg/plate based upon standard protocol and procedures (Ames et al., Mutation Research, 31, 347-364 (1975); Maron et al., Mutation Research, 113, 173-215 (1983)).

[5] = test system: chorioallantoic membrane of White Leghorn eggs; assay: Chorioallantoic Membrane Vascular Assay (ocular irritation)
Procedure: The chorioallantoic membrane of White Leghorn eggs, incubated for 14 days, were dosed with 40 μl of the test compound (and three lower concentrations in distilled water) and then further incubated for about 30 minutes at which time the chorioallantoic membrane was examined for vascular hemorrhage, capillary injection, and/or the presence of ghost vessels.

[6] = test system: normal, human-derived epidermal keratinocytes (NHEK); assay: Epiderm MTT Viablity Assay; format: cell-based
Procedure: Using MatTek Corporation's EpiDerm™ System (consisting of normal, human-derived epidermal keratinocytes (NHEK) which have been cultured to form a multilayered, highly differentiated model of the human epidermis), it was determined that 6-furfurylamino-9-(2-tetrahydropyranyl)purine would be expected to be classified as non-irritating.

Compound: c1coc(CNc2ncnc3c2ncn3C2CCCCO2)c1 (stereo not drawn) [6-furfurylamino-9-(2-tetrahydropyranyl)purine]
- toxicity or other negative effects on survival of cultured human skin fibroblasts ([1]; 0.01 to 500 μM, 3 days of treatment): No toxicity or other negative effects were apparent
- short term growth of young human fibroblasts vs untreated ([1]; 40, 80, and 200 μM): similar
- percentage of attachment of the cells to the surface of the culture flask ([1]; 40 to 400 μM, after 6 hours of treatment): not affected
- short term growth of young human fibroblasts ([1]; about 400 μM): slight decrease in growth of cells
- cell growth and survival ([1]; between 1 and 200 μM, 3 days of treatment): slight stimulation of cell growth and survival
- apoptosis and beta-galactosidase staining (premature senescence) ([1]; various doses (0 to 400 μM)): no suggestion of induction of apoptosis or premature senescence
- induction of additional growth or cell division ([1]; young and senescent human skin fibroblasts): No significant induction of additional growth or cell division
- cell number of senescent cells ([2]; 0 to 400 μM, after 7 days): No negative effects
- appearance of the cells (reversion of age-related changes) ([2]; 0 to 400 μM, after 30 days of treatment): younger looking in terms of becoming thinner and arranged in arrays
- survival of senescent cells ([2]; 200 μM or more, after 14 days): slight negative effect on the survival of senescent cells
- actin staining pattern ([2]; late passage senescent cells, 0 to 200 μM, after three days): changed the actin staining pattern from a highly polymerized pattern to a less polymerized filament pattern
- cell number of senescent cells ([2]; lower concentrations (below 200 μM), after 14 days): no negative effects
- IC50 ([3]; Rattus norvegicus, C6 glioma, 0.5 h, read-out: Anti-inflammatory Activity I50): 13 µM
- Anti-inflammatory Activity Effect [3]: Inhibition
- mutagenic responses [4]: no positive mutagenic responses
- ocular irritation classification [5]: non-irritant
- RC50 (calculated concentration producing a positive reaction in 50% of treated eggs) ([5]; about 30 minutes, <1% irritant, >3% non-irritant): 105%
- irritation classification, EpiDerm System [6]: non-irritating
